# Measurements reported in patent US8410178B2, “CIS 3,4-dihydroxy-2-(3-methylbutanoyl)-5-(3-methylbutyl)-4-(4-methylpentanoyl)cyclopent-2-en-1-derivatives, substantially enantiomerically pure compositions and methods” (KinDex Therapeutics, LLC, priority 2010, dated 2013).
# Key:
# PPARγ = biological target: T1, PPARγ (Homo sapiens, UniProt P37231); test: PPARγ luciferase reporter assay; type: cell-based
# T1 sequence (P37231 1-505): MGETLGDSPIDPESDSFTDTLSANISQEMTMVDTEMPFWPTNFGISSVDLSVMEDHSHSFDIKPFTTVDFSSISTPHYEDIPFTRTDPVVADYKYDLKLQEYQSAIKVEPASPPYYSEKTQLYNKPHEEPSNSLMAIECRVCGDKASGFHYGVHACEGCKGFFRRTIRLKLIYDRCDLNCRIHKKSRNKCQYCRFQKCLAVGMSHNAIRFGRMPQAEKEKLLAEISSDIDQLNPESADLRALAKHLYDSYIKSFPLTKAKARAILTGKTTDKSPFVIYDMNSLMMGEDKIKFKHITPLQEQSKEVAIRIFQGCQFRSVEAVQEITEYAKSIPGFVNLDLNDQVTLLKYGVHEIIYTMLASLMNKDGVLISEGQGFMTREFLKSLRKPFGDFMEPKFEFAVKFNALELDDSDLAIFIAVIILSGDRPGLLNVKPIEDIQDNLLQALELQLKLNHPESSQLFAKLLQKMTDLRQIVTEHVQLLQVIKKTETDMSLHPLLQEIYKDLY
# Protocol: The functional effect of (+)-KDT501 on PPARα, PPARδ, and PPARγ activity was evaluated using a PPAR reporter assay (INDIGO Biosciences, PA). This assay utilizes non-human mammalian cells engineered to provide constitutive high level expression of PPARα, PPARδ, or PPARγ and containing a luciferase report gene specific to the appropriate PPAR. Following activation by agonist binding, PPAR induces expression of the luciferase reporter gene. Luciferase activity therefore provides a surrogate for measuring PPAR activity in agonist-treated cells.
# Reporter cells were plated on a 96-well plate at 100 μL per well, and 100 μL of (+)-KDT501 at various final concentrations (25, 12.5, 6.25, 3.125, 1.56 and 0.78 μM) was added to each well. […] 0.1% DMSO was also used as a negative control for each assay. Plates are incubated for 20 hours in a humidified incubator at 37° C. and 5% CO2. After incubation, cell medium was discarded and the cells were treated with 100 μL of luciferase detection reagent for 15 minutes. Plates were analyzed using a luminometer (Victor2, Perkin Elmer). Average relative light unit (RLU) and standard deviation were analyzed using GraphPad Prism.
# The PPAR activity assays were repeated as described above using both (+)-KDT501(12.5, 6.25, 3.125, 1.56, and 0.78 μM) and (−)-KDT501 (25, 12.5, 6.25, 3.125, 1.56, and 0.78 μM).
# GPR120 = biological target: T2, GPR120 (Homo sapiens, UniProt Q5NUL3); test: GPR120 activity, intracellular calcium response in CHO-K1/GPR120/Gα15 cells; type: cell-based; settings: CHO-K1/GPR120/Gα15 cells; calcium response; unit inferred; read-out: GPR120 agonistic activity EC50
# T2 sequence (Q5NUL3 1-361): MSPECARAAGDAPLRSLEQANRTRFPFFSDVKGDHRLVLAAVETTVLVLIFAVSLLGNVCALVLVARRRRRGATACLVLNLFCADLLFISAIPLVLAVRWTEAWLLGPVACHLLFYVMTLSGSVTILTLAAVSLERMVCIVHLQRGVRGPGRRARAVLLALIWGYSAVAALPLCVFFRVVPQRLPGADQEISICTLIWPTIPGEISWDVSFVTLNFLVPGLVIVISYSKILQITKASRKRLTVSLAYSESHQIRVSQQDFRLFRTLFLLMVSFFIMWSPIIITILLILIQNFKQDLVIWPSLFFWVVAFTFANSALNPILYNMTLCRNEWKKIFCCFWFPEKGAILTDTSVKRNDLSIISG
# Protocol: GPR120 activity was measured by intracellular calcium response. CHO-K1/GPR120/Gα15 cells were regularly passaged to maintain optimal cell health and cultured in Ham's F12 supplemented with 10% fetal bovine serum, 200 μg/mL zeocin, and 100 μg/mL hygromycin. Cells were seeded in a 384-well black-wall, clear-bottom plate at a density of 20,000 cell per well in 20 μL of growth medium 18 hours prior to the start of the experiment, and maintained at 37° C./5% CO2. Cells were loaded with calcium-4, and baseline fluorescence readings were obtained from 1 second to 20 seconds using a fluorescent imaging plate reader (FLIPR). At 20 seconds, (+)-KDT501 (5× final concentration) was added to the reading plate, and the fluorescence signal was monitored for 100 seconds (21 seconds to 120 seconds). α-linolenic acid (LA), eicosapentaenoic acid (EPA), and docosahexaenoic acid (DHA) were used as controls. Data acquisition and analysis was performed using ScreenWorks (version 3.1) and exported to Excel. The average fluorescence value for the first 20 seconds was calculated as the baseline reading. The relative fluorescent unit (ΔRFU) intensity values were calculated with the maximal fluorescent units (21 s to 120 s), subtracting the baseline reading. Data analysis wizard written by GenScript was used to analyze EC50. Dose response curves of antagonist were fitted using the GraphPad Prism 4 four parameter logistic equation Y=Bottom+(Top−Bottom)/(1+10^((LogIC50−X)*HillSlope)), where X is the logarithm of concentration and Y is response.
# [1] = biological target: T3, peroxisome proliferator-activated receptor gamma (PPARγ) (Homo sapiens, UniProt P37231); test: Competitive binding to PPARγ ([3H]rosiglitazone)
# T3 sequence (P37231 1-505): T1 sequence (P37231 1-505)
# [2] = test system: diet induced obese (DIO) mice; test: Glucose, insulin, HbA1C and fat mass in high fat diet-induced obesity (DIO) mouse model; type: in vivo
# Protocol: 14 week-old male mice were randomized and divided into seven dosing groups with 16 animals in each group: 1) vehicle only (0.5% methylcellulose (w/v), 0.2% Tween 80 (w/v); negative control), 2) (+)-KDT501 25 mg/kg, 3) (+)-KDT501 50 mg/kg, 4) (+)-KDT501 100 mg/kg, 5) (+)-KDT501 200 mg/kg, 6) metformin 200 mg/kg (positive control), and 7) pioglitazone 30 mg/kg (positive control). Drugs were administered orally twice a day for 30 days.
# Animals were weighed at randomization and once per week thereafter, with administration dosages calculated based on the most recent body weight measurements. The mice were maintained on a high fat diet (40% Kcal) (TD95217; prepared by Covance Laboratories, Greenfield, Ind.). Body composition was tested by qNMR on days −5 and 28 after the start of treatment. […]. An oral glucose tolerance test (OGTT) was performed on day 30 after the start of treatment. Mice underwent an overnight fast prior to OGTT, and tail bleeds for glucose and insulin were performed pre-glucose bolus and at 15, 30, 60, 90, and 120 minutes post-glucose bolus. The glucose bolus was 2 g dextrose/kg of body weight. OGTT results were evaluated by area under the curve (AUC) measurements and Dunnett's test.
smiles,measurement,setting,value
"CC(C)CCC(=O)[C@@]1(O)C(O)=C(C(=O)CC(C)C)C(=O)[C@@H]1CCC(C)C.[K] [(+)-KDT501, (+)-(4S,5R)-3,4-dihydroxy-2-(3-methylbutanoyl)-5-(3-methylbutyl)-4-(4-methylpentanoyl)cyclopent-2-en-1-one potassium salt]",Fold difference in PPARγ reporter activity,PPARγ; (+)-KDT501 versus (−)-KDT501 at 3.13 μM,3.9
same,Fold difference in PPARγ reporter activity,PPARγ; (+)-KDT501 versus (−)-KDT501 at 6.25 μM,6.7
same,Fold difference in PPARγ reporter activity,PPARγ; (+)-KDT501 versus (−)-KDT501 at 12.5 μM,6.8
same,Fold difference in PPARγ reporter activity,PPARγ; (+)-KDT501 versus (−)-KDT501 at 25 μM,3.2
same,PPARγ reporter activity (RLU),PPARγ; concentration of test compound 3.13 μM,2122 RLU
same,PPARγ reporter activity (RLU),PPARγ; concentration of test compound 6.25 μM,6536 RLU
same,PPARγ reporter activity (RLU),PPARγ; concentration of test compound 12.5 μM,16451 RLU
same,PPARγ reporter activity (RLU),PPARγ; concentration of test compound 25 μM,13419 RLU
same,PPARγ activity,"PPARγ; reporter cells, 20 hours",increased PPARγ activity in a statistically significant manner
same,EC50,GPR120,30.3 µM
same,IC50,[1],8.4 µM
same,Ki,[1],4.5 µM
same,nH,"[1]; binding target PPARγ, competitor ligand Rosiglitazone",1.1
same,insulin levels from the OGTT,"[2]; 200 mg/kg orally twice a day, day 30",significant decrease
same,blood glucose levels from the OGTT,"[2]; 100 or 200 mg/kg orally twice a day, day 30",significant decrease
same,fat mass,"[2]; 100 or 200 mg/kg orally twice a day, qNMR day 28",significant difference in fat mass versus negative control mice
same,HbA1C,"[2]; orally twice a day, day 29, dose not specified",trend towards HbA1C inhibition
